Molecules are shown by their SMILES. Read-outs that look alike come from different tables or passages of the source.

This is an account of results in PMC11298430, “Synthesis and In vitro evaluation of bichalcones as novel anti-toxoplasma agents” (Frontiers in Chemistry, 2024).

The test system of series [1] is Toxoplasma gondii ME49 tachyzoites. The experiment in a line: Toxoplasma gondii in vitro inhibition assay (3H-uracil incorporation). Type of series: cell-based.
A further series can be described thus: MTT cytotoxicity assay. It counts as cell-based. Particulars: human. On the procedure: (§1) The MTT [3-(4, 5-dimethylthiazole-2-yl)-2, 5-diphenyltetrazolium bromide] reduction assay ([Mosmann, 1983]) was used to quantify the cytotoxic effects of the examined chalcones and bichalcones on the host cells. To avoid edge effects, only the inner 60 wells of each plate were used. Briefly, 5 × 10^4 Hs27 cells per well were cultured in 96-well microtiter plates in Iscove’s modified Dulbecco’s medium (IMDM, Gibco–Thermo Fisher Scientific, Braunschweig, Germany, #12440053) with a volume of 100 µL per well and incubated overnight at 37°C until confluence. Different concentrations of the compounds (ranging from 200 μM to 0.09 µM) were then added to the Hs27 cells. Controls included untreated Hs27 cells treated with DMSO, and cells treated with staurosporine (0.031, 0.062, 0.125, 0.25, 0.5, 1 µM) (Merck, Darmstadt, Germany, #S4400), a natural product known for its potent activity as apoptosis inducer ([Belmokhtar et al., 2001]). After 24 h of incubation, the culture media were replaced with 100 µL of Dulbecco’s Modified Eagle Medium (DMEM) medium without red phenol (Gibco-Thermo Fisher Scientific, Braunschweig, Germany, #21041025) plus 10% heat-inactivated fetal bovine serum (FBS Standard, South America origin, fetal bovine serum, […] sterile filtered, PAN-Biotech, Aidenbach, Germany, #P30-3,306), and […] 2-mercaptoethanol (Gibco-Thermo Fisher Scientific, Braunschweig, Germany, #21985023). The experiment was performed following the manufacturer’s instructions (CyQuant MTT Cell Viability Assay Kit, Thermo Fisher Scientific, Braunschweig, Germany, #V-13154). Optical density (O.D.) was measured at 570 nm using a microplate reader (TECAN Sunrise, Männedorf, Switzerland). The half-maximal cytotoxic concentration (CC50) values of each compound against Hs27 cells relative to DMSO-treated samples were determined using GraphPad PRISM™ statistical software (version 9.5.1; San Diego, CA). In addition, the selectivity index (SI) of each compound was calculated from the ratio of CC50/IC50.

Series [2] in a line: Stability experiments (reverse phase HPLC purity). It counts as physicochemical. On the procedure:
Table S3: Purity results of the stability experiments over a varying time span at different
Entry Variations Time Purity [%]
Table S4: Reverse Phase HPLC chromatogram of bichalcone 2ab (rac) in DMSO stock solution […]
Table S5: Reverse Phase HPLC chromatogram of bichalcone 2ab (rac) in DMSO stock solution
Table S6: Reverse Phase HPLC chromatogram of bichalcone 2ab (rac) in DMSO at -78 °C for […]

Another series relates to human fibroblasts Hs27. The experiment in a line: MTT cytotoxicity assay. It counts as cell-based. Particulars: 24 h. The procedure: as §1
The next series concerns Toxoplasma gondii. Also noted: method as in Touquet et al., 2018. Particulars: literature value ref Touquet et al., 2018; cited from earlier work.
The mark [3] stands for this setting: Toxoplasma gondii, HS27, T. gondii ME49 tachyzoites in Hs27 host cells, 3H-uracil incorporation, n = 6, read-out: IC50 ± S.D.
Where [4] appears, read: T. gondii ME49 tachyzoites in Hs27 host cells, 3H-uracil incorporation, n = 6, read-out: IC50 ± S.D.
The mark [5] stands for this setting: Toxoplasma gondii, HS27, read-out: IC50 ± S.D.
[6] abbreviates: Hs27 cells, MTT, 24 h, n = 6, read-out: CC50.

The term IC50 denotes the point on the concentration scale where inhibition reaches its midpoint. As usually defined, the CC50 is the concentration that lowers cell viability or growth by half. For `COc1cc(C)c(-c2c(C)cc(OC)c(C(=O)/C=C/c3ccccc3)c2O)c(O)c1C(=O)/C=C/c1ccccc1` (racemic) [2ab], in series [1] (setting [3]), the IC50 came to 0.11 ± 0.02 µM. The same compound showed a CC50 at 24 h in the series “MTT cytotoxicity assay” greater than 200 µM. Further, the Purity in series [2] (22 °C, DMSO, 24 h) is 75.9%; in series [2] (40 °C, DMSO, 24 h), 76.6%; in series [2] (40 °C, MeOH, 24 h), 89.7%; in series [2] (40 °C, MeOH, KOH, 24 h) it was 35.6%; in series [2] (-20 °C, DMSO, 6 months), 96.2%.

With `COc1cc(C)c(-c2c(C)cc(OC)c(C(=O)/C=C/c3ccccc3)c2O)c(O)c1C(=O)/C=C/c1ccccc1` (single isomer, unassigned) [(R a)-2ab], in series [1] (setting [4]), the IC50 stood at 0.1 ± 0.01 µM. Besides, in the series on human fibroblasts Hs27, the CC50 was greater than 200 µM.

With `COc1cc(C)c(-c2c(C)cc(OC)c(C(=O)/C=C/c3ccccc3)c2O)c(O)c1C(=O)/C=C/c1ccccc1` (single isomer, unassigned) [(S a)-2ab], the IC50 in series [1] (setting [4]) came to 0.31 ± 0.03 µM. Further, the CC50 at 24 h in the series “MTT cytotoxicity assay” is greater than 200 µM.

Turning to `COc1ccc(/C=C/C(=O)c2c(O)cc(C)cc2OC)cc1` [1aa], in series [1] (setting [3]), the IC50 was found to be 21.8 ± 3.07 µM. The compound also displayed a 50% cytotoxic concentration (CC50) at 24 h in “MTT cytotoxicity assay” of 180 ± 32 µM.

Consider `COc1cc(C)cc(O)c1C(=O)/C=C/c1ccccc1` [1ab], for which the IC50 in series [1] (setting [3]) is 14.1 ± 2.62 µM. In “MTT cytotoxicity assay”, this compound displayed a CC50 at 24 h of 133 ± 28 µM.

For the compound `COc1cc(C)cc(O)c1C(=O)/C=C/c1ccc(N(C)C)cc1` [1ac], in series [1] (setting [3]), the IC50 is greater than 50 µM. The compound also had a CC50 at 24 h in “MTT cytotoxicity assay” greater than 200 µM.

`COc1cc(C)cc(O)c1C(=O)/C=C/c1ccc(C(F)(F)F)cc1` [1ad]: the IC50 in series [1] (setting [3]) is greater than 50 µM. Besides, the CC50 at 24 h in the series “MTT cytotoxicity assay” was greater than 200 µM.

Turning to `COc1cc(C)cc(O)c1C(=O)/C=C/c1ccc(Br)cc1` [1ae], the IC50 in series [1] (setting [3]) amounted to 10.6 ± 1.05 µM. The same compound showed a CC50 at 24 h in “MTT cytotoxicity assay” of 190 ± 99 µM.

`COc1cc(C)cc(O)c1C(=O)/C=C/c1cccc(Br)c1` [1af]: the IC50 in series [1] (setting [3]) worked out at 6.18 ± 0.55 µM. Besides, the CC50 at 24 h in “MTT cytotoxicity assay” is 134 ± 78 µM.

For `COc1cc(C)cc(O)c1C(=O)/C=C/c1ccccc1Br` [1ag], in series [1] (setting [3]), the IC50 was greater than 50 µM. This compound yielded a CC50 at 24 h in “MTT cytotoxicity assay” greater than 200 µM.

As to `COc1ccc(/C=C/C(=O)c2c(O)cc(OC)cc2OC)cc1` [1ba], in series [1] (setting [3]), the IC50 came to 8.08 ± 2.06 µM. Besides, the CC50 at 24 h in “MTT cytotoxicity assay” was greater than 200 µM.

In the case of `COc1cc(O)c(C(=O)/C=C/c2ccccc2)c(OC)c1` [1bb], in series [1] (setting [3]), the IC50 was determined as 6.01 ± 2.54 µM. Further, in “MTT cytotoxicity assay”, the midpoint of cytotoxicity, the CC50 at 24 h, lay at 87.8 ± 16 µM.

As to `COc1cc(O)c(C(=O)/C=C/c2ccc(N(C)C)cc2)c(OC)c1` [1bc], the IC50 in series [1] (setting [5]) was greater than 50 µM. Also, in the series “MTT cytotoxicity assay” (setting [6]), the CC50 at 24 h was greater than 200 µM.

For the compound `COc1cc(O)c(C(=O)/C=C/c2ccc(C(F)(F)F)cc2)c(OC)c1` [1bd], in series [1] (setting [3]), the IC50 is greater than 50 µM. For the same compound, the CC50 at 24 h in the series “MTT cytotoxicity assay” is greater than 200 µM.

For the compound `COc1cc(O)c(C(=O)/C=C/c2ccc(Br)cc2)c(OC)c1` [1be], in series [1] (setting [5]), the IC50 is greater than 50 µM. The CC50 at 24 h in the series “MTT cytotoxicity assay” (setting [6]) was greater than 200 µM.

On to `COc1cc(O)c(C(=O)/C=C/c2cccc(Br)c2)c(OC)c1` [1bf], for which the IC50 in series [1] (setting [3]) stood at 11.3 ± 0.61 µM. The CC50 at 24 h in “MTT cytotoxicity assay” is greater than 200 µM.

As to `COc1cc(O)c(C(=O)/C=C/c2ccccc2Br)c(OC)c1` [1bg], the IC50 in series [1] (setting [5]) was 4.46 ± 0.46 µM. Moreover, the CC50 at 24 h in “MTT cytotoxicity assay” (setting [6]) came out at 86.5 ± 72 µM.

As to `COc1ccc(/C=C/C(=O)c2c(OC)cc(C)c(-c3c(C)cc(OC)c(C(=O)/C=C/c4ccc(OC)cc4)c3O)c2O)cc1` [2aa], the IC50 in series [1] (setting [3]) stood at 6.63 ± 0.77 µM. The CC50 at 24 h in “MTT cytotoxicity assay” was greater than 200 µM.

As to `COc1cc(C)c(-c2c(C)cc(OC)c(C(=O)/C=C/c3ccc(N(C)C)cc3)c2O)c(O)c1C(=O)/C=C/c1ccc(N(C)C)cc1` [2ac], the IC50 in series [1] (setting [3]) is greater than 50 µM. The compound also displayed a CC50 at 24 h in the series “MTT cytotoxicity assay” greater than 200 µM.

Consider `COc1cc(C)c(-c2c(C)cc(OC)c(C(=O)/C=C/c3ccc(C(F)(F)F)cc3)c2O)c(O)c1C(=O)/C=C/c1ccc(C(F)(F)F)cc1` [2ad], for which the IC50 in series [1] (setting [3]) came out at 24.7 ± 3.52 µM. This compound also returned a CC50 at 24 h in “MTT cytotoxicity assay” greater than 200 µM.

For `COc1cc(C)c(-c2c(C)cc(OC)c(C(=O)/C=C/c3ccc(Br)cc3)c2O)c(O)c1C(=O)/C=C/c1ccc(Br)cc1` [2ae], the IC50 in series [1] (setting [3]) was determined as 7.91 ± 1.14 µM. In the series “MTT cytotoxicity assay”, this compound returned a CC50 at 24 h greater than 200 µM.

For `COc1cc(C)c(-c2c(C)cc(OC)c(C(=O)/C=C/c3cccc(Br)c3)c2O)c(O)c1C(=O)/C=C/c1cccc(Br)c1` [2af], the IC50 in series [1] (setting [3]) was 30.5 ± 7.21 µM. This compound also returned a CC50 at 24 h in “MTT cytotoxicity assay” greater than 200 µM.

For the compound `COc1cc(C)c(-c2c(C)cc(OC)c(C(=O)/C=C/c3ccccc3Br)c2O)c(O)c1C(=O)/C=C/c1ccccc1Br` [2ag], the IC50 in series [1] (setting [3]) came out at 18.44 ± 0.1 µM. Moreover, the CC50 at 24 h in “MTT cytotoxicity assay” was greater than 200 µM.

With `COc1ccc(/C=C/C(=O)c2c(OC)cc(OC)c(-c3c(OC)cc(OC)c(C(=O)/C=C/c4ccc(OC)cc4)c3O)c2O)cc1` [2ba], in series [1] (setting [3]), the IC50 was greater than 50 µM. In the series “MTT cytotoxicity assay”, this compound registered a CC50 at 24 h greater than 200 µM.

On to `COc1cc(OC)c(-c2c(OC)cc(OC)c(C(=O)/C=C/c3ccccc3)c2O)c(O)c1C(=O)/C=C/c1ccccc1` [2bb], for which the IC50 in series [1] (setting [3]) came to 9.75 ± 1.95 µM. The same compound registered a CC50 at 24 h in the series “MTT cytotoxicity assay” greater than 200 µM.

On to `COc1cc(OC)c(-c2c(OC)cc(OC)c(C(=O)/C=C/c3ccc(N(C)C)cc3)c2O)c(O)c1C(=O)/C=C/c1ccc(N(C)C)cc1` [2bc], for which the IC50 in series [1] (setting [3]) was greater than 50 µM. The CC50 at 24 h in the series “MTT cytotoxicity assay” was greater than 200 µM.

`COc1cc(OC)c(-c2c(OC)cc(OC)c(C(=O)/C=C/c3ccc(C(F)(F)F)cc3)c2O)c(O)c1C(=O)/C=C/c1ccc(C(F)(F)F)cc1` [2bd]: the IC50 in series [1] (setting [3]) was 3.09 ± 0.15 µM. Besides, the CC50 at 24 h in “MTT cytotoxicity assay” was greater than 200 µM.

As for `COc1cc(OC)c(-c2c(OC)cc(OC)c(C(=O)/C=C/c3ccc(Br)cc3)c2O)c(O)c1C(=O)/C=C/c1ccc(Br)cc1` [2be], the IC50 in series [1] (setting [3]) stood at 8.55 ± 1.28 µM. This compound also gave a CC50 at 24 h in the series “MTT cytotoxicity assay” greater than 200 µM.

Turning to `COc1cc(OC)c(-c2c(OC)cc(OC)c(C(=O)/C=C/c3cccc(Br)c3)c2O)c(O)c1C(=O)/C=C/c1cccc(Br)c1` [2bf], the IC50 in series [1] (setting [3]) turned out to be 12.4 ± 2.09 µM. Further, in the series “MTT cytotoxicity assay”, the CC50 at 24 h was greater than 200 µM.

In the case of `COc1cc(OC)c(-c2c(OC)cc(OC)c(C(=O)/C=C/c3ccccc3Br)c2O)c(O)c1C(=O)/C=C/c1ccccc1Br` [2bg], the IC50 in series [1] (setting [3]) is greater than 50 µM. In the series “MTT cytotoxicity assay”, this compound had a CC50 at 24 h greater than 200 µM.

Consider `CCc1nc(N)nc(N)c1-c1ccc(Cl)cc1` [PYR, pyrimethamine, reference compound], for which the IC50 in series [1] (setting [3]) was 0.22 ± 0.05 µM; in the series with Toxoplasma gondii, 0.4 µM. In addition, in “MTT cytotoxicity assay”, the CC50 at 24 h was greater than 100 µM.
